In patent publication US10149860B2, “Compositions and methods for treating alzheimer's disease and other tauopathies” (Board of Trustees Of The Leland Stanford Junior University, priority 2013, dated 2018):

Experiments:
PS19 mice = assay: Passive avoidance test in PS19 tauopathy mice; assay type: in vivo; settings: WP1130-treated PS19 mice vs wt and vehicle treated PS19 mice; FIG. 28
Method: The passive avoidance test was used to test whether WP1130 could rescue the learning and memory deficits expressed in the PS19 mice. During training, the animals were subjected to electric shock on the foot in the dark chamber. During testing, the trained animals were placed in the light chamber and the time it took the animals to enter the dark chamber (latency time) was recorded. […] (Top) A diagram showing the passive-avoidance test, in which animals were allow to freely moving between the light and dark chambers during habituation. During training, the animals were subjected to electric shock on the foot in the dark chamber. During testing, the trained animals were placed in the light chamber and the time it took the animals to enter the dark chamber (latency time) was recorded. (Bottom) Statistical analysis of the latency times of vehicle-treated WT control, vehicle-treated PS19 tauopathy mice, and drug-treated PS19 tauopathy during the habituation, training, and testing periods. ** indicates P<0.01 in Student's t-test.

MARK4 [1] = assay: Western blot of MARK4 in brain extracts of PS19 tauopathy mice after ICV infusion; assay type: in vivo; settings: relative to vehicle controls, FIG. 27
Method: (§1) To test the effects of WP1130 in a mammalian model of AD, the drug was administered to Tauopathy mice (PS19) expressing the pathogenic P301S human tau transgene. Mice received intracerebroventricular (ICV) infusion of either WP1130 or vehicle controls and MARK4 and p-Tau levels were assessed by western blot. […] Tauopathy mice (PS19) expressing the pathogenic P301S human tau transgene were treated with vehicle (#1, 2, 4, 6, 12) or WP1130 (#5, 8, 13, 14, 15) by intracerebroventricular (ICV) infusion, and brain extracts were subjected to Western blot analysis with the indicated antibodies. Actin serves as a loading control, and T14 anti-Tau antibody measures levels of total tau. Note the reduction of MARK4 and p-Tau (S262) protein levels by drug treatment.

PAR-1 = assay: Western blot of PAR-1-Myc levels in third instar larvae body-wall muscle extracts; assay type: in vivo, Drosophila; settings: Mhc-Gal4>PAR-1 larvae; WP1130 10 μM vs DMSO; FIG. 26b
Method: (§2) For Western blot analysis, the primary antibodies used were: anti-PAR-1 (1:8,000), anti-phospho-PAR-1 (1:1,000); anti-HA (1:2,000, Sigma); anti-Myc (1:1,000, Millipore); anti-GFP (1:2,000, Abcam); anti-Dlg (4F3) (1:1,000, Hybridoma bank, University of Iowa); 12E8 (1:8,000); anti-Actin (1:40,000, Sigma); anti-Gapdh (1:3,000, Abcam).
(§3) Either WP1130 (Selleck Chemicals) or DMSO (Sigma) was added to fly food at 2, 5 or 10 μM concentrations. Feeding third instar larvae were collected from the drug-containing food and dissected in PBS. Besides Mhc-GAL4>UAS-APP, which were raised at 29° C., all flies were raised at 25° C.
(§4) To investigate whether WP1130 may act as an inhibitor of FAF to control PAR-1 activity in vivo, Mhc-Gal4>PAR-1 and control Mhc-Gal4/+ animals were fed with fly food containing WP1130 or DMSO alone. […]
(§5) (a) Quantification of the pharmacological effect of WP1130 on the total number of boutons on muscle 6/7 of A3, after normalization with bouton area. […] (c) Quantification of NMJ bouton number showing rescue by WP1130 (10 μM) of the bouton-loss phenotypes induced by Mhc-Gal4>UAS-htauM or Mhc-Gal4>UAS-htauM+UAS-PAR-1. […] (e) Quantification of NMJ bouton number showing rescue by WP1130 (10 μM) of the bouton-loss phenotypes induced the expression APP/Aβ-42. […]

MARK4 [2] = assay: Western blot of MARK4 stability in HEK 293T cells transfected with hMARK4-HA; assay type: cell-based, human; settings: HEK 293T cells with hMARK4-HA; 5 μM WP1130 for 8 h; FIG. 25a
Method: (§6) HEK 293T cells transfected with the hMARK4-HA plasmids were treated with 5 μM WP1130 for 8 h and subsequently used for western blot analysis. Actin serves as loading control. […] Cultured HEK 293T cells were treated with 0, 2, 5 and 10 μM WP1130 for 12 h, and used for western blot analysis. Actin serves as loading control.

[3] = system: htau phosphorylation at 12E8 sites; assay: Western blot of 12E8-positive htauM level in WP1130-fed flies; assay type: in vivo, Drosophila; settings: WP1130 10 μM vs DMSO; FIG. 26d
Method: as §2, §3, §4, §5

FAF = target: T1, FAF (Drosophila melanogaster, UniProt P55824); assay: Drosophila larval NMJ bouton number after feeding WP1130 in fly food; assay type: in vivo
T1 construct: Mhc-Gal4>PAR-1 and control Mhc-Gal4/+ animals were fed with fly food containing WP1130 or DMSO alone; endogenous in cells; host or cells: Drosophila third instar larvae (body-wall muscle / NMJ)
T1 sequence (P55824 whole entry, the tested form may be a part): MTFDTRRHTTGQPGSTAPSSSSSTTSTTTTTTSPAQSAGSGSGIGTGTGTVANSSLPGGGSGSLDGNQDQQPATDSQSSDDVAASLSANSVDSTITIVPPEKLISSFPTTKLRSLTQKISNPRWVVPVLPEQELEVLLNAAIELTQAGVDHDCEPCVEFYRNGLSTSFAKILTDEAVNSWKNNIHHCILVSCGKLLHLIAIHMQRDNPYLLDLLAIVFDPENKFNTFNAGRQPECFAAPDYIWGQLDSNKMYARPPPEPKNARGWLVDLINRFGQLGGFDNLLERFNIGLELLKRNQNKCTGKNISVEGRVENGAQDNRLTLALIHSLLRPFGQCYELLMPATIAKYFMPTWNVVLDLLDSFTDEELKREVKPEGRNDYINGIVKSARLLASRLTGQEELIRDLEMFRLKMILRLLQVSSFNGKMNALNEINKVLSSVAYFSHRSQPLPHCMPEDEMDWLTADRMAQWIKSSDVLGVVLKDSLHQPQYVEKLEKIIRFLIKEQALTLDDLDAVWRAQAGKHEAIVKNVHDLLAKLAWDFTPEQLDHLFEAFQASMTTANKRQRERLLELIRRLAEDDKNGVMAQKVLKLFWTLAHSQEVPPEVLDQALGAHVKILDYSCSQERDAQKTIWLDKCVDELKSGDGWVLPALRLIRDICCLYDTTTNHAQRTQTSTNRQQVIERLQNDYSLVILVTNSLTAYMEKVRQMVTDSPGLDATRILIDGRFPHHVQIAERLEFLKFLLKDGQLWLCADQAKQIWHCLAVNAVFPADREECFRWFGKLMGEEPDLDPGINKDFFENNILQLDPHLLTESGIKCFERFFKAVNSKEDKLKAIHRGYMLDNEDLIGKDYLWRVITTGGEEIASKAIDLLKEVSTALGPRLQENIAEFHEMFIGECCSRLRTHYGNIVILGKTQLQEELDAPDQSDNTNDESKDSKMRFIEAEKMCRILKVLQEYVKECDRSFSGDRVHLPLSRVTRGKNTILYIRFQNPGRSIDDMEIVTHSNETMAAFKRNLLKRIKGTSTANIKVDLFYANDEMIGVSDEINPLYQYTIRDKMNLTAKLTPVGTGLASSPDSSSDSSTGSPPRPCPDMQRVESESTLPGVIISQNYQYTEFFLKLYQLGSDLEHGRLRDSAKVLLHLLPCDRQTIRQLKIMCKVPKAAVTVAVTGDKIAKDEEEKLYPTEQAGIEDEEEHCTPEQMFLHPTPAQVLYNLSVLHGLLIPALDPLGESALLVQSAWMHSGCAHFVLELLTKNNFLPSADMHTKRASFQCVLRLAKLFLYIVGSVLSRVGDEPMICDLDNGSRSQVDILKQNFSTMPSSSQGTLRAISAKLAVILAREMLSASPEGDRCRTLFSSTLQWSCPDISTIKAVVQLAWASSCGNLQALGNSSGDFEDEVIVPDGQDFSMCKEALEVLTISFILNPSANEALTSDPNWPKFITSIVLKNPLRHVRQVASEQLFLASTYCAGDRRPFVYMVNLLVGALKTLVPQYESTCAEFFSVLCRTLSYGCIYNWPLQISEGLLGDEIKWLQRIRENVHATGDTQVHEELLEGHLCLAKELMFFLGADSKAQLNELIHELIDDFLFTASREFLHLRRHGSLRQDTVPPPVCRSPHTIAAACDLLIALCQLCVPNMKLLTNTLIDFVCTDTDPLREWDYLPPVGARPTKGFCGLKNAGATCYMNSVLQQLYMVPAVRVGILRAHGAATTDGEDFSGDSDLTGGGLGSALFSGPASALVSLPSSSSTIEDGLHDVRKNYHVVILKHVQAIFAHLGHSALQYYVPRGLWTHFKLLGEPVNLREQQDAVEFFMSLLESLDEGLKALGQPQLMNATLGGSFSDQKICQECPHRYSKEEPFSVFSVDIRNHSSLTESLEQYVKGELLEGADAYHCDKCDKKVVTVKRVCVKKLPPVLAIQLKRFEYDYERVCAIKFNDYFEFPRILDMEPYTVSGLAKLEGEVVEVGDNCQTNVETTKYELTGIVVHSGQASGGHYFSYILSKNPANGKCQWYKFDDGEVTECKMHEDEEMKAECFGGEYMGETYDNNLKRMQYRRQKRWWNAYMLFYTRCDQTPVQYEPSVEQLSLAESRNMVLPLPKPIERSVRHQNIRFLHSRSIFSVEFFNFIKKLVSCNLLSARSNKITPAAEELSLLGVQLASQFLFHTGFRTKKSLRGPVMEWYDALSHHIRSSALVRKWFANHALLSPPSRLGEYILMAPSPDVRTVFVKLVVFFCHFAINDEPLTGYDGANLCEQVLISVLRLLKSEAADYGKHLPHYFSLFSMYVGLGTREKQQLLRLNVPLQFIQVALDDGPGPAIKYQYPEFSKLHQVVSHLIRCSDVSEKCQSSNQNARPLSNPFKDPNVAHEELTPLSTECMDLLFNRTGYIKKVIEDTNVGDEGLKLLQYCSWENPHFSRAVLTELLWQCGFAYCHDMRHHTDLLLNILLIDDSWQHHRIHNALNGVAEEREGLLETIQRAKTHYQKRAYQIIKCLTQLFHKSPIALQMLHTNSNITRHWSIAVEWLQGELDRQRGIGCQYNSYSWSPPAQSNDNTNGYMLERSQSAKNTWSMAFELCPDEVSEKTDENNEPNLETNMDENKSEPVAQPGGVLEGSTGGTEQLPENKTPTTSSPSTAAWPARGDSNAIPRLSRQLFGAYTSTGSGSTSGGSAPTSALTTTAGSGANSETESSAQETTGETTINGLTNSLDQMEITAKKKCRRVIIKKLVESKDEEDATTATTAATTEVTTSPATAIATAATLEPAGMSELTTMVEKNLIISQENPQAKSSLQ
Method: For immunohistochemistry, third instar lavae were selected, dissected in PBS, fixed in 4% formaldehyde (Ted Pella) in PBS for about 15 minutes and washed 3× in 0.1% Triton X-100 in PBS. The primary antibodies used were: anti-PAR-1 (1:10,000), anti-phospho-PAR-1 (1:1,000); anti-Slimb (1:1,000); anti-Dlg (4F3) (1:50, Hybridoma bank, University of Iowa); anti-GFP (1:8,000, Abcam); anti-dtau (1:3). Primary antibody incubation was performed at 4° C. overnight. All secondary antibodies (Molecular Probes) and Texas Red or FITC-conjugated anti-HRP (Jackson ImmunoResearch Laboratories) were used at 1:200 and incubated for about 2 hours at room temperature. Laval preparations were mounted in SlowFade Antifade kit (Invitrogen). Confocal images were collected from Leica confocal microscopes SP2 and SP5 equipped with 40× or 100× inverted NX oil lens. Leica Application Suite Advanced Fluorescence software was used to capture, process and analyze images. Analysis of the NMJ was performed essentially as described^51. All crosses for genetic interaction studies in the NMJ were performed at 25° C.
as §3
Fly eye sizes were measured on multiple samples (n>15) from both control and experimental genotypes using the NIH ImageJ software. Average eye size was presented as a normalized percentage of control eye size. We performed two-tailed unpaired Student's t-test to analyze the significance of differences between two groups. Quantification of NMJ bouton number was performed according to previously described protocols (Lee et al., 2010). NMJ bouton number is normalized by muscle area at muscle 6/7 in abdominal segment A3. The experimental genotypes were normalized relative to the control genotype.
To investigate whether WP1130 may act as an inhibitor of FAF to control PAR-1 activity in vivo, Mhc-Gal4>PAR-1 and control Mhc-Gal4/+ animals were fed with fly food containing WP1130 or DMSO alone. […] Given the potent effect of WP1130 in modulating PAR-1 protein level, whether WP1130 would affect the phosphorylation of tau was tested.
(a) Quantification of the pharmacological effect of WP1130 on the total number of boutons on muscle 6/7 of A3, after normalization with bouton area. Indicated genotype flies were incubated with 0, 2, 5 or 10 μM concentrations of WP1130. (b) Western blot analyses showing the effects of WP1130 (10 μM) on PAR-1-Myc levels in third instar larvae body-wall muscle extracts. Values represent normalized PAR-1-Myc levels. Actin serves as loading control. (c) Quantification of NMJ bouton number showing rescue by WP1130 (10 μM) of the bouton-loss phenotypes induced by Mhc-Gal4>UAS-htauM or Mhc-Gal4>UAS-htauM+UAS-PAR-1. (d) Western blot analysis showing reduced 12E8-positive htauM level by WP1130 (10 μM). Values represent normalized 12E8-positive htauM levels. Actin serves as loading control. (e) Quantification of NMJ bouton number showing rescue by WP1130 (10 μM) of the bouton-loss phenotypes induced the expression APP/Aβ-42. (f) A model depicting possible signaling pathways linking APP/Aβ-42 to synaptic dysfunction and synapse loss seen in AD. Dashed lines indicate potential direct regulations.

[4] = system: endogenous tau phosphorylation at the MARK sites; assay: Western blot of endogenous tau phosphorylation (12E8 antibody) in HEK 293T cells; assay type: cell-based, human; settings: 0, 2, 5 and 10 μM WP1130 for 12 h, FIG. 25b
Method: as §6

[5] = system: tau phosphorylation at the PAR-1/MARK target site (S262); assay: Western blot of p-Tau (S262) in brain extracts of PS19 tauopathy mice after ICV infusion; assay type: in vivo; settings: relative to vehicle controls, FIG. 27
Method: as §1

- bouton-loss phenotype caused by the co-expression of PAR-1 and htauM (FAF; Mhc-Gal4>UAS-htauM+UAS-PAR-1, WP1130 10 μM vs DMSO, FIG. 26c): partially suppressed
- synaptic-loss phenotype caused by postsynaptic co-expression of FAF and Slimb-ΔF (FAF; WP1130 in fly food vs DMSO, FIG. 26a): blocked synaptic-loss phenotype
- bouton-loss phenotype induced by Mhc-Gal4>UAS-htauM (FAF; htauM alone, WP1130 10 μM, FIG. 26c): rescue
SMILES: CCC[C@H](NC(=O)/C(C#N)=C/c1cccc(Br)n1)c1ccccc1 [WP1130, (S,E)-3-(6-bromopyridin-2-yl)-2-cyano-N-(1-phenylbutyl)acrylamide]
- latency time to enter the dark chamber (PS19 mice): latency times comparable to that of wt
- MARK4 level (MARK4 [1]): significantly reduced
- PAR-1 protein level (PAR-1): reducing PAR-1 protein level
- stability of MARK4 (MARK4 [2]): decreases the stability of MARK4
- htau phosphorylation at 12E8 sites [3]: dramatically decreased
- loss of NMJ bouton number caused by overexpression of PAR-1 (FAF; Mhc-Gal4>PAR-1 larvae, WP1130 in fly food at 0, 2, 5 or 10 μM vs DMSO, FIG. 26a): highly effective in preventing the loss of NMJ bouton number
- bouton-loss phenotype caused by the postsynaptic toxicity of APP/Aβ-42 (FAF; WP1130 10 μM, FIG. 26e): effectively suppressed
- endogenous tau phosphorylation at the MARK sites (12E8 antibody) [4]: decreased endogenous tau phosphorylation
- phosphorylated tau level [5]: significantly reduced
